This test has as its system skin pigmentation. Description: Clinical study: facial pigment intensity from digital photography. It counts as in vivo, human. The note with it: lotion with 1.00% acetyl zingerone (Formulation 1A) applied to full face twice daily, group of 17.

`COc1cc(CC(C(C)=O)C(C)=O)ccc1O` [Compd. 1, Acetyl Zingerone]: the “Pigment Intensity (% Change), Average” value runs as follows: (4 weeks) −25.580%; (8 weeks) −25.601%.

(Values after patent US10828241B2, “Skin lightening compositions and methods” (SYTHEON LIMITED, priority 2018, dated 2020).)
